The nature of this data set: oxidation (decay) of psilocin over time, applicant's own data.

In the case of `CN(C)CCc1c[nH]c2cccc(O)c12` [psilocin], the “decay of psilocin (oxidation)” value reads like this: (after 5 hours, moist and/or high light environment) roughly 25%; (at 20 hours when shielded from light) 40-60%; (within 30 minutes, moist and/or high light environment) “about 10%”.

The values are drawn from patent US20240207336A1, “PURIFIED PS[…] […] ACIDIFIED ACETONE” (PSILO SCIENTIFIC LTD, priority 2021, published 2024).
